TGI data for 14 compounds are collected here from PubChem BioAssay (NCI).

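Step 1: Grow cells in 96-well plates. Step 2: Expose to compound for 48 hours at 5 concentrations. Step 3: Interpolate endpoints linearly; if unreached, use highest concentration. TGI marks complete inhibition of growth.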

The first assay relates to 786-0 renal. As to the kind of experiment: growth of human tumour cells (NCI), 48 h.
Take `COc1ccc(CN(Cc2ccc(OC)cc2)C(=O)CC2(O)C=CCC2)cc1` (centres undefined): the TGI was greater than 100 µM.

`COc1ccc(OC)c(C2Cc3cnc4nc(N)nc(N)c4c3C2)c1` (centres undefined): the TGI is 89.9 µM.

In turn, `CC(C)(C)c1cc(C(=O)/C=C/C=C/c2ccccc2)cc(C(C)(C)C)c1O` gave a TGI of 36.1 µM.

With `N#C/C(N)=C(\C#N)NC=NCc1ccccc1`, the TGI is greater than 100 µM.

As to `O=[N+]([O-])c1ccc(S(=O)(=O)N=Ic2ccccc2)cc1`, the TGI is greater than 100 µM.

Turning to `O=C(O)CCN(CCC(=O)O)c1ccc(/C=C2\SC(=S)NC2=O)cc1`, the TGI is greater than 100 µM.

Take `O=C1C[C@H]2[C@@H](O1)[C@@H](O)CN1C(=O)c3ccccc3[C@H]21`: the TGI is greater than 100 µM.

Regarding `CCO/C=N/NC(=O)CSc1nc2ccc(I)cc2c(=O)n1Cc1ccccc1`, the TGI is greater than 100 µM.

For the compound `COc1ccc(OC)c(N2C(=O)CSC2c2cc(OC)c(OC)c(OC)c2)c1` (centres undefined), the TGI was greater than 100 µM.

Compound `CCOC(=O)c1ccc(C(=O)/C(C#N)=C2\CCCN2C)[nH]1` returned a TGI greater than 100 µM.

`S=c1[nH]n2c(COc3cccc(OCc4nnc5sc(=S)[nH]n45)c3)nnc2s1` returned a TGI greater than 100 µM.

`CCOC(=O)C1=C(N)Oc2ccc(Br)cc2C1C(C#N)C(=O)OCC` (centres undefined) had a TGI of 70.1 µM.

With `O=C(CCc1cc(O)cc(O)c1)NCCc1cc(O)cc(O)c1`, the TGI was greater than 100 µM.

Regarding `Cc1cc(OCc2nnc3n2N=C(c2cc(F)c(Cl)cc2Cl)/C(=C/c2ccc(Cl)cc2)S3)ccc1Cl`, the TGI is greater than 100 µM.

Another assay deals with MDA-MB-435. Nature of the assay: growth of human tumour cells (NCI), 48 h.
With `COc1ccc(CN(Cc2ccc(OC)cc2)C(=O)CC2(O)C=CCC2)cc1` (centres undefined), the TGI was greater than 100 µM.

`COc1ccc(OC)c(C2Cc3cnc4nc(N)nc(N)c4c3C2)c1` (centres undefined) yielded a TGI of 65 µM.

Turning to `CC(C)(C)c1cc(C(=O)/C=C/C=C/c2ccccc2)cc(C(C)(C)C)c1O`, the TGI is greater than 70.4 µM.

Compound `N#C/C(N)=C(\C#N)NC=NCc1ccccc1` registered a TGI greater than 100 µM.

`O=[N+]([O-])c1ccc(S(=O)(=O)N=Ic2ccccc2)cc1` had a TGI greater than 100 µM.

Regarding `O=C(O)CCN(CCC(=O)O)c1ccc(/C=C2\SC(=S)NC2=O)cc1`, the TGI is greater than 100 µM.

As to `O=C1C[C@H]2[C@@H](O1)[C@@H](O)CN1C(=O)c3ccccc3[C@H]21`, the TGI is greater than 100 µM.

The compound `CCO/C=N/NC(=O)CSc1nc2ccc(I)cc2c(=O)n1Cc1ccccc1` yielded a TGI greater than 100 µM.

`COc1ccc(OC)c(N2C(=O)CSC2c2cc(OC)c(OC)c(OC)c2)c1` (centres undefined) returned a TGI of 86 µM.

Compound `CCOC(=O)c1ccc(C(=O)/C(C#N)=C2\CCCN2C)[nH]1` returned a TGI greater than 100 µM.

Regarding `S=c1[nH]n2c(COc3cccc(OCc4nnc5sc(=S)[nH]n45)c3)nnc2s1`, the TGI was greater than 100 µM.

With `CCOC(=O)C1=C(N)Oc2ccc(Br)cc2C1C(C#N)C(=O)OCC` (centres undefined), the TGI amounted to 37.9 µM.

The compound `O=C(CCc1cc(O)cc(O)c1)NCCc1cc(O)cc(O)c1` yielded a TGI greater than 100 µM.

As for `Cc1cc(OCc2nnc3n2N=C(c2cc(F)c(Cl)cc2Cl)/C(=C/c2ccc(Cl)cc2)S3)ccc1Cl`, the TGI was greater than 100 µM.

The subject of the next assay is SR leukemia. As to the kind of experiment: growth of human tumour cells (NCI), 48 h.
`COc1ccc(CN(Cc2ccc(OC)cc2)C(=O)CC2(O)C=CCC2)cc1` (centres undefined): the TGI is greater than 100 µM.

`COc1ccc(OC)c(C2Cc3cnc4nc(N)nc(N)c4c3C2)c1` (centres undefined) gave a TGI of 44.9 µM.

For the compound `CC(C)(C)c1cc(C(=O)/C=C/C=C/c2ccccc2)cc(C(C)(C)C)c1O`, the TGI came to 13.4 µM.

Regarding `N#C/C(N)=C(\C#N)NC=NCc1ccccc1`, the TGI is greater than 100 µM.

`O=[N+]([O-])c1ccc(S(=O)(=O)N=Ic2ccccc2)cc1` yielded a TGI greater than 100 µM.

Turning to `O=C(O)CCN(CCC(=O)O)c1ccc(/C=C2\SC(=S)NC2=O)cc1`, the TGI was greater than 100 µM.

Consider `O=C1C[C@H]2[C@@H](O1)[C@@H](O)CN1C(=O)c3ccccc3[C@H]21`, for which the TGI was greater than 100 µM.

As to `CCO/C=N/NC(=O)CSc1nc2ccc(I)cc2c(=O)n1Cc1ccccc1`, the TGI was greater than 100 µM.

`COc1ccc(OC)c(N2C(=O)CSC2c2cc(OC)c(OC)c(OC)c2)c1` (centres undefined) came in with a TGI greater than 100 µM.

Compound `CCOC(=O)c1ccc(C(=O)/C(C#N)=C2\CCCN2C)[nH]1` showed a TGI greater than 100 µM.

`S=c1[nH]n2c(COc3cccc(OCc4nnc5sc(=S)[nH]n45)c3)nnc2s1`: the TGI is greater than 100 µM.

`CCOC(=O)C1=C(N)Oc2ccc(Br)cc2C1C(C#N)C(=O)OCC` (centres undefined) yielded a TGI greater than 100 µM.

`O=C(CCc1cc(O)cc(O)c1)NCCc1cc(O)cc(O)c1`: the TGI was greater than 100 µM.

Regarding `Cc1cc(OCc2nnc3n2N=C(c2cc(F)c(Cl)cc2Cl)/C(=C/c2ccc(Cl)cc2)S3)ccc1Cl`, the TGI came out at 30.4 µM.

For another assay, the system named is HCC-2998 colon. Nature of the assay: growth of human tumour cells (NCI), 48 h.
`COc1ccc(CN(Cc2ccc(OC)cc2)C(=O)CC2(O)C=CCC2)cc1` (centres undefined) had a TGI greater than 100 µM.

For the compound `COc1ccc(OC)c(C2Cc3cnc4nc(N)nc(N)c4c3C2)c1` (centres undefined), the TGI was 41.9 µM.

For `CC(C)(C)c1cc(C(=O)/C=C/C=C/c2ccccc2)cc(C(C)(C)C)c1O`, the TGI stood at 28.2 µM.

`N#C/C(N)=C(\C#N)NC=NCc1ccccc1` displayed a TGI greater than 100 µM.

`O=[N+]([O-])c1ccc(S(=O)(=O)N=Ic2ccccc2)cc1` returned a TGI greater than 100 µM.

Regarding `O=C(O)CCN(CCC(=O)O)c1ccc(/C=C2\SC(=S)NC2=O)cc1`, the TGI was greater than 100 µM.

`O=C1C[C@H]2[C@@H](O1)[C@@H](O)CN1C(=O)c3ccccc3[C@H]21` gave a TGI greater than 100 µM.

Compound `CCO/C=N/NC(=O)CSc1nc2ccc(I)cc2c(=O)n1Cc1ccccc1` gave a TGI greater than 100 µM.

`COc1ccc(OC)c(N2C(=O)CSC2c2cc(OC)c(OC)c(OC)c2)c1` (centres undefined) yielded a TGI greater than 100 µM.

For `CCOC(=O)c1ccc(C(=O)/C(C#N)=C2\CCCN2C)[nH]1`, the TGI was greater than 100 µM.

`S=c1[nH]n2c(COc3cccc(OCc4nnc5sc(=S)[nH]n45)c3)nnc2s1` returned a TGI greater than 100 µM.

In the case of `CCOC(=O)C1=C(N)Oc2ccc(Br)cc2C1C(C#N)C(=O)OCC` (centres undefined), the TGI stood at 32.7 µM.

In turn, `O=C(CCc1cc(O)cc(O)c1)NCCc1cc(O)cc(O)c1` came in with a TGI greater than 100 µM.

As for `Cc1cc(OCc2nnc3n2N=C(c2cc(F)c(Cl)cc2Cl)/C(=C/c2ccc(Cl)cc2)S3)ccc1Cl`, the TGI came out at 40.3 µM.

The next assay relates to CAKI-1 renal. As to the kind of experiment: growth of human tumour cells (NCI), 48 h.
`COc1ccc(CN(Cc2ccc(OC)cc2)C(=O)CC2(O)C=CCC2)cc1` (centres undefined) came in with a TGI greater than 100 µM.

The compound `COc1ccc(OC)c(C2Cc3cnc4nc(N)nc(N)c4c3C2)c1` (centres undefined) returned a TGI greater than 100 µM.

With `CC(C)(C)c1cc(C(=O)/C=C/C=C/c2ccccc2)cc(C(C)(C)C)c1O`, the TGI was greater than 100 µM.

On to `N#C/C(N)=C(\C#N)NC=NCc1ccccc1`, for which the TGI was greater than 100 µM.

In turn, `O=[N+]([O-])c1ccc(S(=O)(=O)N=Ic2ccccc2)cc1` returned a TGI greater than 100 µM.

`O=C(O)CCN(CCC(=O)O)c1ccc(/C=C2\SC(=S)NC2=O)cc1` returned a TGI greater than 100 µM.

In the case of `O=C1C[C@H]2[C@@H](O1)[C@@H](O)CN1C(=O)c3ccccc3[C@H]21`, the TGI is greater than 100 µM.

Regarding `CCO/C=N/NC(=O)CSc1nc2ccc(I)cc2c(=O)n1Cc1ccccc1`, the TGI was greater than 100 µM.

Turning to `COc1ccc(OC)c(N2C(=O)CSC2c2cc(OC)c(OC)c(OC)c2)c1` (centres undefined), the TGI is greater than 100 µM.

Consider `CCOC(=O)c1ccc(C(=O)/C(C#N)=C2\CCCN2C)[nH]1`, for which the TGI was greater than 100 µM.

With `S=c1[nH]n2c(COc3cccc(OCc4nnc5sc(=S)[nH]n45)c3)nnc2s1`, the TGI is greater than 100 µM.

With `CCOC(=O)C1=C(N)Oc2ccc(Br)cc2C1C(C#N)C(=O)OCC` (centres undefined), the TGI was greater than 100 µM.

Turning to `O=C(CCc1cc(O)cc(O)c1)NCCc1cc(O)cc(O)c1`, the TGI is greater than 100 µM.
